# From paper PMC7663531, “Synthesis, Molecular Docking Screening and Anti-Proliferative Potency Evaluation of Some New Imidazo[2,1-b]Thiazole Linked Thiadiazole Conjugates” (Molecules, 2020)
# Experiments:
# [1] = system: HepG2 cells; test: Anti-proliferative assay in vitro (SRB) on hepatic cancer cell line HepG2; type: cell-based; conditions: Homo sapiens, 72 h exposure, tested from 100 to 0.1 µg/mL, Nd: no detectable activity in the used concentrations, DMSO 1%, read-out: HepG2 IC50 ± SD
# Experimental: (§1) The results of anti-proliferative activity were calculated based on the IC50 (inhibitory concentration 50%), the concentration of a tested compound which inhibits 50% of the cells population. IC50 esteems were determined for each examination independently and mean qualities ± SD are introduced in Table 1. The movement of every subordinate at every fixation was tried in three-fold in a solitary test; which was rehashed 3–5 times. The aftereffects of the investigations on against proliferative action of tried mixes are summed up in Table 1
# (§2) Cell lines: Hep-G2 (human hepatic disease) and BALB/3T3 (murine fibroblast) are being kept up in the Institute of Cancer, Cairo, Egypt. All malignant growth cell lines were obtained from American Type Culture Collection (Rockville, Maryland, USA) and kept up in the Institute of Cancer. HepG2 cells were refined in Eagle’s minimum essential medium (EMEM) and supplemented with 10% FBS; DMEM and RPMI1640 were choices for that function also. Suction included new culture medium each 2–3 days. HepG2 cell multiplying time was 48 h. BALB/3T3 cell line was refined in DMEM and enhanced with 2 mM L-glutamine, 10% fetal ox-like serum (GE Healthcare, Logan, UT, USA). To entry cells, cell monolayer with 1× PBS were flushed twice and pre-warmed (37 °C) 0.05% Trypsin-EDTA arrangement was added to cover the lower part of the jar; brooded for 5–7 min. As cells withdrew, the trypsin was killed by including 4× volume of complete development medium with 10% FBS and delicately suspended the cells by pipetting. To abstain from clustering, the phones were not upset by shaking the jar while sitting tight for separation. Split cells 1:4 at regular intervals or 1:8 like clockwork. Societies had been brooded at 37 °C in a humidified climate with 5% CO2.
# (§3) All compounds were broken up in DMSO (stock arrangement 10 mg/mL) and consequently weakened in culture medium to arrive at the necessary fixations (going from 100 to 0.1 µg/mL).
# (§4) 24 h before expansion of the tried exacerbates, the cells were plated in 96-well plates (Sarstedt, Germany) at thicknesses of 1 × 10^4 cells per well. The examination was performed after 72 h introduction to shifting centralizations of the tried mixes. The in vitro cytotoxic impact of all mixes was analyzed utilizing the SRB measure.
# (§5) The subtleties of this strategy were depicted by Skehan et al.. The cells were joined to the lower part of plastic wells by fixing them with cold half TCA (trichloroacetic corrosive, Sigma-Aldrich Chemie GmbH, Steinheim, Germany) on the head of the way of life medium in each well. The plates were hatched at 4 °C for 1 h and afterward washed multiple times with faucet water. The cell material fixed with TCA was recolored with 0.4% sulphorhodamine B (SRB, Sigma-Aldrich Chemie GmbH, Steinheim, Germany) disintegrated in 1% acidic corrosive for 30 min. Unbound color was taken out by flushing (multiple times) in 1% acidic corrosive. The protein-bound color was removed with 10 mMunbufferedTris base for assurance of the optical thickness (λ = 540 nm) in Synergy H4 multi-mode microplate peruser (BioTek Instruments, Winooski, VT, USA).
# [2] = system: BALB/3T3 (murine fibroblast); test: Anti-proliferative assay in vitro (SRB) on normal cell line BALB/3T3; type: cell-based; conditions: Mus musculus, 72 h exposure, tested from 100 to 0.1 µg/mL, Nd: no detectable activity in the used concentrations, DMSO 1%, read-out: BALAB/3T3 IC50 ± SD
# Experimental: as §1, §2, §3, §4, §5
Structure (SMILES),melting point [°C],IC50 [1] [µg/mL],IC50 [2] [µg/mL]
"CSC(=S)N/N=C(\C)c1sc2nc(-c3ccc(C)cc3)cn2c1C [Compound 3, methyl 2-(1-(3-methyl-6-(p-tolyl)imidazo[2,1-b]thiazol-2-yl)ethylidene) hydrazinecarbodithioate]",182 to 184,,
"CC(=O)c1nn(-c2cccc(-n3nc(C(C)=O)s/c3=N\N=C(/C)c3sc4nc(-c5ccc(C)cc5)cn4c3C)c2)/c(=N/N=C(\C)c2sc3nc(-c4ccc(C)cc4)cn3c2C)s1 [Compound 11, 1,1’-(4,4’-(1,3-Phenylene)bis(5-((1-(3-methyl-6-(p-tolyl)imidazo[2,1-b]thiazol-2-yl)ethylidene)hydrazono)-4,5-dihydro-1,3,4-thiadiazole-4,2-diyl))diethanone]",292 to 294,,
"CC(=NN=c1sc(-c2ccccc2)nn1-c1cccc(-n2nc(-c3ccccc3)sc2=NN=C(C)c2sc3nc(-c4ccc(C)cc4)cn3c2C)c1)c1sc2nc(-c3ccc(C)cc3)cn2c1C [Compound 10, 1,3-Bis(2-((1-(3-methyl-6-(p-tolyl)imidazo[2,1-b]thiazol-2-yl)ethylidene)hydrazono)-5-phenyl-1,3,4-thiadiazol-3(2H)-yl)benzene]",> 300,23.5 ± 4.48,26.2 ± 3.21
"CC(=O)c1nn(-c2ccc(S(=O)(=O)c3ccc(-n4nc(C(C)=O)s/c4=N\N=C(/C)c4sc5nc(-c6ccc(C)cc6)cn5c4C)cc3)cc2)/c(=N/N=C(\C)c2sc3nc(-c4ccc(C)cc4)cn3c2C)s1 [Compound 12, 1,1’-(4,4’-(Sulfonylbis(4,1-phenylene))bis(5-((1-(3-methyl-6-(p-tolyl)imidazo[2,1-b]thiazol-2-yl)ethylidene)hydrazono)-4,5-dihydro-1,3,4-thiadiazole-4,2-diyl))diethanone]",> 300,12.7 ± 1.36,8.34 ± 1.81
"COc1cccc2c1C(=O)c1c(O)c3c(c(O)c1C2=O)C[C@@](O)(C(=O)CO)C[C@@H]3O[C@H]1C[C@H](N)[C@H](O)[C@H](C)O1 [Doxorubicin, reference compound]",,3.56 ± 0.46,3.21 ± 0.32

# Now from value to compound, other results behind:
melting point [°C],IC50 [1] [µg/mL],Structure (SMILES),IC50 [2] [µg/mL]
220 to 222,63.3 ± 12.8,"CC(=O)c1nn(-c2ccc(C)cc2)c(=NN=C(C)c2sc3nc(-c4ccc(C)cc4)cn3c2C)s1 [Compound 6a, 1-(5-((1-(3-Methyl-6-(p-tolyl)imidazo[2,1-b]thiazol-2-yl)ethylidene)hydrazono)-4-(p-tolyl)-4,5-dihydro-1,3,4-thiadiazol-2-yl)ethanone]",25.1 ± 12
235 to 237,41.1 ± 8.32,"CCOC(=O)c1nn(-c2ccccc2)c(=NN=C(C)c2sc3nc(-c4ccc(C)cc4)cn3c2C)s1 [Compound 6d, Ethyl 5-((1-(3-methyl-6-(p-tolyl)imidazo[2,1-b]thiazol-2-yl)ethylidene)hydrazono)-4-phenyl-4,5-dihydro-1,3,4-thiadiazole-2-carboxylate]",
156 to 158,57.5 ± 6.61,"CCOC(=O)c1nn(-c2ccc(Br)cc2)c(=NN=C(C)c2sc3nc(-c4ccc(C)cc4)cn3c2C)s1 [Compound 6f, Ethyl 4-(4-bromophenyl)-5-((1-(3-methyl-6-(p-tolyl)imidazo[2,1-b]thiazol-2-yl)ethylidene) hydrazono)-4,5-dihydro-1,3,4-thiadiazole-2-carboxylate]",
273 to 275,,"CC(=NN=c1sc(-c2ccccc2)nn1-c1ccccc1)c1sc2nc(-c3ccc(C)cc3)cn2c1C [Compound 6i, 2-(1-((3,5-Diphenyl-1,3,4-thiadiazol-2(3H)-ylidene)hydrazono)ethyl)-3-methyl-6-(p-tolyl) imidazo[2,1-b]thiazole]",
117 to 119,,"CCOC(=O)c1nn(-c2ccc(C)cc2)c(=NN=C(C)c2sc3nc(-c4ccc(C)cc4)cn3c2C)s1 [Compound 6e, Ethyl 5-((1-(3-methyl-6-(p-tolyl)imidazo[2,1-b]thiazol-2-yl)ethylidene)hydrazono)-4-(p-tolyl)-4,5-dihydro-1,3,4-thiadiazole-2-carboxylate]",
216 to 218,59.2 ± 9.27,"COc1ccc(-n2nc(C(C)=O)sc2=NN=C(C)c2sc3nc(-c4ccc(C)cc4)cn3c2C)cc1 [Compound 6b, 1-(4-(4-Methoxyphenyl)-5-((1-(3-methyl-6-(p-tolyl)imidazo[2,1-b]thiazol-2-yl)ethylidene) hydrazono)-4,5-dihydro-1,3,4-thiadiazol-2-yl)ethanone]",
241 to 243,,"CC(=NN=c1sc(C(=O)Nc2ccccc2)nn1-c1ccc([N+](=O)[O-])cc1)c1sc2nc(-c3ccc(C)cc3)cn2c1C [Compound 6h, 5-((1-(3-Methyl-6-(p-tolyl)imidazo[2,1-b]thiazol-2-yl)ethylidene)hydrazono)-4-(4-nitrophenyl)-N-phenyl-4,5-dihydro-1,3,4-thiadiazole-2-carboxamide]",
209 to 211,33.2 ± 8.25,"CC(=NN=c1sc(C(=O)Nc2ccccc2)nn1-c1ccccc1)c1sc2nc(-c3ccc(C)cc3)cn2c1C [Compound 6g, 5-((1-(3-Methyl-6-(p-tolyl)imidazo[2,1-b]thiazol-2-yl)ethylidene)hydrazono)-N,4-diphenyl-4,5-dihydro-1,3,4-thiadiazole-2-carboxamide]",76.7 ± 4.14
192 to 194,,"CC(=O)c1nn(-c2ccc(Cl)cc2)c(=NN=C(C)c2sc3nc(-c4ccc(C)cc4)cn3c2C)s1 [Compound 6c, 1-(4-(4-Chlorophenyl)-5-((1-(3-methyl-6-(p-tolyl)imidazo[2,1-b]thiazol-2-yl)ethylidene) hydrazono)-4,5-dihydro-1,3,4-thiadiazol-2-yl)ethanone]",
